Consider 84 molecules from PubChem BioAssay AID1645865 (Buhrlage Lab, Dana-Farber Cancer Institute and Novartis …, 2021).

The source made the active and inactive calls.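 The calls were made as follows: active = maximal inhibition of the USP30 enzyme reaching 30% or more across the dose series; inactive = the rest.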 A value given as a limit tells only on which side of the number the result lay.

This experiment concerns the target Ubiquitin carboxyl-terminal hydrolase 30 (Homo sapiens) (UniProt Q70CQ3). Put plainly: ubiquitin-specific protease 30 DUB inhibitors, concentration-effect, biochemical, validation of primary actives (AID 1645865). The settings on record: purified USP30, Ub-rhodamine cleavage, fluorescence, 2 h.

Sequence of Ubiquitin carboxyl-terminal hydrolase 30 (Homo sapiens) (Q70CQ3 whole entry, looked up): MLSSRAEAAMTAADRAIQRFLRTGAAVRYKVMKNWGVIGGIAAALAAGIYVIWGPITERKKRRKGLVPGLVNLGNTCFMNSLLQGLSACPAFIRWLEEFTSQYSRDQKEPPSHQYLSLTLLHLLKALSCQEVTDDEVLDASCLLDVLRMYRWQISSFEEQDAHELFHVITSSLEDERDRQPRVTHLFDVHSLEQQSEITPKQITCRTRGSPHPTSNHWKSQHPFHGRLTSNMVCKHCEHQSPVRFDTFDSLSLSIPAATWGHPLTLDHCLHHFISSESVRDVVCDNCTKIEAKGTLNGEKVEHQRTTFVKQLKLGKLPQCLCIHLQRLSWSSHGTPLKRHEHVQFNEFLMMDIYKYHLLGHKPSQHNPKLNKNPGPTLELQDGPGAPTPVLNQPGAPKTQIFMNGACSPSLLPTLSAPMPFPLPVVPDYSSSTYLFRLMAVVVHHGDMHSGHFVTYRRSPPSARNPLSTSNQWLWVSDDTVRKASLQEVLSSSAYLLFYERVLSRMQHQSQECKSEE

For orientation: IC50 means the concentration that gives 50% inhibition. As for `COc1cc(NC(=O)c2cc(CN3CCOCC3)on2)cc(OC)c1`, the IC50 was > 50 µM (inactive).
For `COc1cccc(NC(=O)CSc2nnc(-c3cc4cccc(OC)c4o3)n2C)c1`, the concentration for half-maximal inhibition (IC50) was 5.18 µM.
`CC[C@H](C)[C@H](NC(=O)[C@H]([C@@H](C)CC)N(C)C(C)=O)C(=O)N[C@H](C(=O)N[C@@H](CC(C)C)C(=O)C1(C)CO1)[C@@H](C)O` (some centres undefined): the IC50 is > 50 µM (inactive).
`CS(=O)(=O)n1nc(NCc2ccc(F)cc2)nc1NCc1ccc(F)cc1`: the IC50 was > 50 µM (inactive).
Regarding `CCOc1ccc(CCNC(=O)c2ccc3c(c2)N(CC)C(=O)c2ccccc2S3)cc1OCC`, the IC50 was > 50 µM (inactive).
With `COc1ccc(/C=C/C(=O)Nc2cccc(S(=O)(=O)Nc3ccccc3Cl)c2)c(OC)c1`, the IC50 is 25.6 µM.
Consider `O=C(Cc1noc2ccccc12)NCC(=O)Nc1ccc(Cl)cc1`, for which the IC50 is 21.6 µM.
Under `Cc1nc(-c2ccc(-n3cc(C(=O)Nc4cccc(F)c4)c(C)n3)cc2)no1` stands 47.7 µM; under `COc1cc2c(cc1NC(=O)c1ccc(-n3cnnn3)cc1)oc1ccccc12`, 0.221 µM; under `Nc1ccccc1SC(CC(=O)c1ccc(Cl)cc1)c1ccsc1` (centres undefined), > 50 µM (inactive).
For the molecule `COc1ccc(C(C(=O)NCc2ccccc2)N(C(=O)CCN2CCc3ccccc32)c2ccc(C)c(C)c2)cc1` (centres undefined), the IC50 was > 50 µM (inactive).
`Cc1nc(C(=O)Nc2cccc(Cl)c2Cl)nn1-c1cc(Cl)cc(Cl)c1`: the half-maximal inhibitory concentration (IC50) was 0.0981 µM.
Consider `CC1CCCCN1c1nc(F)c2c(c1F)S(=O)(=O)CCN2Cc1ccccc1` (centres undefined), for which the IC50 is > 50 µM (inactive).
Turning to `O=C(NCc1cccnc1)C1CCN(c2cnc(N3CCCCCC3)nc2)CC1`, the IC50 is > 50 µM (inactive).
As for `O=C(COC(=O)c1ccc(CN2CCCC2=O)cc1)c1ccc2c(c1)OCCO2`, the IC50 is > 50 µM (inactive).
With `CCC(=O)Nc1ccc(-c2nc(Cn3cc(C)cn3)c(C)o2)cc1`, the IC50 was > 50 µM (inactive).
In the case of `COc1ccc(CC(=O)NCc2ccc3[nH]c(C)cc3c2)cc1`, the IC50 is > 50 µM (inactive).
`COC(=O)[C@]1(O)O[C@@]2(C(=O)OC)c3c(oc4cc(C)cc(O)c4c3=O)[C@H]3c4c(oc5cc(C)cc(O)c5c4=O)C[C@H]1[C@H]32`: the IC50 was > 50 µM (inactive).
For the molecule `Cn1cc2cccc(NC(=O)c3ccc(F)cc3)c2n1`, the IC50 was > 50 µM (inactive).
For the molecule `O=C1CC(C(=O)Nc2ccccc2F)n2nc(-c3ccccc3)cc2N1` (centres undefined), the concentration for half-maximal inhibition (IC50) was 24.3 µM.
Under `Cc1ccc(-c2csc(-n3ncc(C(=O)N4CCN(C(=O)Nc5cccc6ccccc56)C(C)C4)c3C(C)C)n2)cc1` (centres undefined) stands > 50 µM (inactive); under `O=C(Cn1c(=O)n(CC(=O)NC2CCCC2)c(=O)c2ccccc21)Nc1cc(Cl)ccc1Cl`, 2.42 µM; under `O=C(CCCC(=O)c1ccccc1)Nc1ccc(F)cc1`, 31.4 µM.
With `O=C(Nc1ccc(NS(=O)(=O)c2ccc3c4c(cccc24)CC3)cc1)c1ccccc1`, the IC50 is > 50 µM (inactive).
Regarding `COc1cc(C(=O)OCc2csc(-c3ccccc3)n2)ccc1OCC(=O)Nc1ccc(F)cc1`, the IC50 is > 50 µM (inactive).
Take `CCCCc1nc2sc3c(SCC(=O)Nc4cccc(C)c4)ncnc3c2c2c1CCC2`: the IC50 is > 50 µM (inactive).
As for `CN(C)Cc1ccc(C(=O)Nc2ccc(-c3nccs3)cc2)cc1`, the IC50 was > 50 µM (inactive).
Take `O=C(Oc1ccc(-c2cnc3ccccc3n2)cc1)c1ccc(F)cc1`: the IC50 was 18.2 µM.
The value for `CC(C)CC[C@H]1O[C@@H](CC(=O)O)Cc2cc3c(c(O)c21)C(=O)c1sc(=O)n(C)c1C3=O` was > 50 µM (inactive).
Under `Cc1ccc(-c2nc(Cn3nnc(-c4nc(-c5ccccn5)no4)c3C)c(C)o2)cc1` stands > 50 µM (inactive).
Regarding `COc1cccc(-n2ccc(=O)c(-c3nc(-c4ccccc4Cl)no3)n2)c1`, the IC50 was > 50 µM (inactive).
As to `Cc1nn(-c2ccc(Cl)cc2)c2[nH]c(=O)c(CNCC3CCCO3)cc12` (centres undefined), the IC50 is > 50 µM (inactive).
In the case of `Cc1noc(-c2cccc(=O)n2CC(=O)Nc2ccc(C)c(C)c2)n1`, the IC50 was 25 µM.
Take `CC1=C(c2ccc(F)cc2)S(=O)(=O)NC1=NCC(=O)Nc1ccc(F)cc1F`: the IC50 is 23.4 µM.
On to `COC(=O)CC1CC23OC2(C(=O)c2c(O)cccc2C3=O)C(C)O1` (centres undefined), for which the IC50 is > 50 µM (inactive).
Regarding `CCCCn1c(=O)c(CCC(=O)OCC(=O)Nc2ccc3c(c2)OCCO3)nc2ccccc21`, the IC50 is > 50 µM (inactive).
Take `Cc1cc(O)c(=O)cc2c1C[C@H]1CC(C)(C)/C=C/C[C@@]3(C)Oc4cc(=O)c(O)cc(C)c4C[C@@H]3C[C@H](O)[C@]1(C)O2`: the IC50 is > 50 µM (inactive).
Under `COc1ccc(NC(=O)c2nnn(-c3ccccc3F)c2C)cc1OC` stands > 50 µM (inactive); under `O=C(COc1ccc2c(-c3ccccc3)cc(=O)oc2c1)Nc1cccnc1`, 1.3 µM; under `O=C(NC(Cc1ccccc1)c1nc2ccccc2[nH]1)c1ccccn1` (centres undefined), > 50 µM (inactive).
Under `O=C1Oc2nc3ccccc3cc2CN1Cc1ccco1` stands 17.2 µM; under `CCCCN1CC(C(=O)Nc2ccc(C(=O)Nc3ccc(F)c(Cl)c3)cc2)CC1=O` (centres undefined), 47.5 µM.
Consider `Cc1c(OCC(=O)Nc2nc3ccccc3[nH]2)ccc2c3c(c(=O)oc12)CCC3`, for which the IC50 is 0.148 µM.
The value for `CC(=O)Nc1ccc(S(=O)(=O)NCc2ccc(C(=O)NCc3ccc(C)cc3)cc2)cc1` was 26.5 µM.
Consider `Nc1nc(-c2ccc[nH]2)cs1`, for which the IC50 was > 50 µM (inactive).
For `O=C(c1ccco1)N1CCCC2(C1)Nc1cccnc1NC2=NC1CCCC1` (centres undefined), the IC50 was > 50 µM (inactive).
For `CN(C)CCc1cc2c(c3c1ccc1ccccc13)OCO2`, the IC50 is > 5 µM (inactive).
For the molecule `Cc1nc(C(=O)NC2(O)C(=O)c3ccccc3C2=O)cs1`, the IC50 is 23.1 µM.
Under `CC(c1ccccc1)c1nc(-c2ccc(=O)[nH]c2)no1` (centres undefined) stands > 50 µM (inactive).
For `N#Cc1cc2c(nc1SCC(=O)NCc1ccccc1)CCCC2`, the IC50 was > 50 µM (inactive).
Regarding `COc1cc2c(oc(=O)c3cc(C)cc(OC)c32)c2c([C@@H]3OC(C)[C@@H](O)[C@@](C)(O)C3O)ccc(O)c12` (some centres undefined), the IC50 was > 50 µM (inactive).
In the case of `CC(=O)c1ccc(NC(=O)C[n+]2cc(-c3ccc(Cl)cc3)n3c2CCC3)cc1`, the IC50 is > 50 µM (inactive).
Turning to `COc1ccc(NC(=O)c2ccc(Nc3nnc(C)c4ccccc34)cc2)cc1`, the IC50 is > 50 µM (inactive).
As for `CC1CCc2sc(NC(=O)c3ccccc3Oc3ccccc3)c(C(N)=O)c2C1` (centres undefined), the IC50 is 3.28 µM.
Take `COc1cc(OC)cc(C(=O)Nc2cnc(-c3ccccc3)nc2)c1`: the IC50 was > 50 µM (inactive).
As for `CC(=O)c1ccc(NC(=O)c2nc3ccccc3nc2N2CCOCC2)cc1`, the IC50 was > 50 µM (inactive).
With `O=[N+]([O-])c1ccc(N2CCN(c3ncnc4c3[nH]c3ccc(F)cc34)CC2)cc1`, the IC50 was 0.156 µM.
As for `Cc1cc2nc(/C=C/c3ccccc3)n(Cc3cccc(F)c3)c2cc1C`, the IC50 was > 50 µM (inactive).
For `CC(C)(C)c1ccc(-c2nnc3n2-c2ccccc2SC3)cc1`, the IC50 was 19.1 µM.
Regarding `O=c1c2cnc3nc(-c4cccnc4)nn3c2ccn1CCc1ccccc1`, the IC50 was > 50 µM (inactive).
On to `COc1ccccc1CC(=O)Nc1nc2ccccc2[nH]1`, for which the IC50 is 28.4 µM.
Take `Cc1cccc(C(=O)Nc2ccccc2Sc2nc3c(c(=O)n(C)c(=O)n3C)n2C)c1`: the IC50 is 32.5 µM.
In the case of `CC1(C)OC2=C(C(=O)c3cc(O)cc(O)c3C2=O)c2cc(CO)c(O)cc21`, the IC50 is > 50 µM (inactive).
For `COc1ccc(-c2nc3n(n2)C(c2cccc(O)c2)C2=C(CCCC2=O)N3)cc1` (centres undefined), the IC50 is 38.2 µM.
As for `Cc1oc2ccc(NS(=O)(=O)c3ccc(F)cc3)cc2c1C(=O)OCc1ccccc1`, the half-maximal inhibitory concentration (IC50) was 48.2 µM.
Turning to `Cc1nn(-c2ccc([N+](=O)[O-])cc2)c(C)c1-c1nc2ccccc2[nH]1`, the IC50 is 23.6 µM.
With `COc1ccc(C(=O)Nc2ccccc2C(=O)NCc2ccccc2)cc1`, the IC50 is 30.4 µM.
With `Cc1ccc2c(c1)N(Cc1nc(-c3ccc(F)cc3)no1)C(=O)CO2`, the IC50 is > 50 µM (inactive).
Under `CC(=O)c1cccc(NC(=O)c2ccc3[nH]c4c(c3c2)CC(C)CC4)c1` (centres undefined) stands > 50 µM (inactive); under `C/C1=C\CCC(C)C(O)CC(O)C(C)C(O)CCC(C)C(O)CC2(O)OC(CC(OC(=O)CC(=O)O)CC(O)CC(O)CC(O)C(C)C(O)/C=C/C(C)C(C(C)CCCCCCCCN=C(N)N)OC1=O)CC(O)C2O` (centres undefined), > 50 µM (inactive).
The value for `CCOc1ccccc1C(=O)Oc1ccc2c(C)cc(=O)oc2c1` was 23.1 µM; that for `CN(C)c1cccc(C(=O)Nc2cc(-c3cccnc3)no2)c1` was 16.6 µM.
As for `CCn1ccc2c(cc(C(=O)Nc3ccccc3F)n2C)c1=O`, the IC50 is > 50 µM (inactive).
In the case of `Cc1ccc2cc(CNc3ccccc3)c(=O)n(CC(=O)Nc3ccccc3C)c2c1`, the IC50 is 40.7 µM.
As to `COc1ccc(S(=O)(=O)N2CCC3(CC2)OC(=O)Nc2ccccc23)cc1`, the IC50 was 37.1 µM.
For the molecule `CC(C)NS(=O)(=O)c1ccc(CCC(=O)Nc2ccc3c(c2)OCCO3)cc1`, the 50% inhibitory concentration (IC50) was 37.8 µM.
On to `Cn1c(CCN2CCCC2)nc2cc(NS(=O)(=O)c3ccccc3)ccc21`, for which the IC50 is > 50 µM (inactive).
The value for `COc1ccc(C(=O)NCc2csc3ccccc23)cc1` was 45.2 µM; that for `COc1ccccc1OCCNC(=O)c1cc(C2CC2)nc2c1cnn2C(C)C` was > 50 µM (inactive); that for `O=C(Nc1nc2c(ccc3ccccc32)s1)c1cccc(Br)c1` was 2.44 µM.
In the case of `Cc1cc(/C=C2/C(=N)N3C(c4ccccc4)=CSC3=NC2=O)c(C)n1-c1ccc2ccccc2c1`, the IC50 is > 50 µM (inactive).
Turning to `Cc1nc2nc(SCc3nc4ccccc4n3C)[nH]c2cc1Br`, the IC50 is 4.82 µM.
For `COc1cc2cc3c(c(O)c2c(O)c1-c1c(OC)cc2cc4c(c(O)c2c1O)C(=O)OC1CC(C)OC41)C(=O)OC1CC(C)OC31` (centres undefined), the IC50 is > 50 µM (inactive).
Take `CCC(CC)n1[nH]c(=O)c2c1NC(=O)CSC2c1ccc2c(c1)OCO2` (centres undefined): the IC50 was 16.7 µM.
